Laboratory results taken from PubChem BioAssay AID256 (DTP/NCI, 2004).
“And” between values parts separate entries of the source, which are not always exact repeats. Equal entries are not always repeated. Inconclusive results and toxic doses are left out. How the source made its calls: active means survival T/C of 150% or more; inactive means T/C below 125% in these data.

Test system: CD2F1 mice, L1210 leukemia ip, survival T/C
Assay: NCI In Vivo Anticancer Drug Screen. Data for tumor model L1210 Leukemia (intraperitoneal) in CD2F1 (CDF1) mice
Settings: endpoint: mean survival time, higher = longer survival
How it was run: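 Each value reflects a quotient of treated over vehicle control outcomes in mice with a transplanted tumor.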

[1] = dose: 100.0 mg/kg/injection, schedule: Q04DX003 (ip), vehicle: saline with Tween-80
[2] = dose: 200.0 mg/kg/injection, schedule: Q04DX003 (ip), vehicle: saline with Tween-80
[3] = dose: 400.0 mg/kg/injection, schedule: Q04DX003 (ip), vehicle: saline with Tween-80
[4] = dose: 100.0 mg/kg/injection, schedule: Q01DX009 (ip), vehicle: saline with Tween-80

Measured: T/C

CC(=O)OCCN1CCN(CCCN2c3ccccc3Sc3ccc(C(F)(F)F)cc32)CC1
inactive: dose: 2.6 mg/kg/injection, schedule: Q03HX024 (ip), vehicle: saline 108 % of control | dose: 4.0 mg/kg/injection, schedule: Q03HX024 (ip), vehicle: saline 104 % of control | dose: 6.0 mg/kg/injection, schedule: Q03HX024 (ip), vehicle: saline 121 % of control | dose: 12.5 mg/kg/injection, schedule: Q01DX001 (ip), vehicle: saline 118 % of control and 105 % of control | dose: 12.5 mg/kg/injection, schedule: Q01DX009 (ip), vehicle: saline 100 % of control | dose: 25.0 mg/kg/injection, schedule: Q01DX001 (ip), vehicle: saline 117 % of control and 118 % of control | dose: 25.0 mg/kg/injection, schedule: Q01DX009 (ip), vehicle: saline 95 % of control | dose: 50.0 mg/kg/injection, schedule: Q01DX001 (ip), vehicle: saline 114 % of control | dose: 50.0 mg/kg/injection, schedule: Q01DX009 (ip), vehicle: saline 89 % of control | dose: 100.0 mg/kg/injection, schedule: Q01DX001 (ip), vehicle: saline 109 % of control

CCOc1ccc([N+](=O)[O-])cc1[N+](=O)[O-]
inactive: dose: 25.0 mg/kg/injection, schedule: Q04DX003 (ip), vehicle: saline with Tween-80 93 % of control | dose: 50.0 mg/kg/injection, schedule: Q04DX003 (ip), vehicle: saline with Tween-80 98 % of control | [1] 94 % of control

O=C1C=CC(=Nc2ccc(O)cc2)O1
inactive: dose: 5.0 mg/kg/injection, schedule: Q01DX009 (ip), vehicle: saline with Tween-80 100 % of control | dose: 10.0 mg/kg/injection, schedule: Q01DX009 (ip), vehicle: saline with Tween-80 94 % of control | dose: 20.0 mg/kg/injection, schedule: Q01DX009 (ip), vehicle: saline with Tween-80 104 % of control

O=C(C(Cl)Cl)N(O)c1ccccc1OCc1ccccc1
inactive: [1] 105 % of control | [2] 103 % of control | [3] 103 % of control

CC(C)c1ccc2cc(C(C)C)ccc2c1
inactive: [1] 86 % of control | [2] 92 % of control | [3] 92 % of control

Cc1ccccc1OS(=O)(=O)c1ccccc1
inactive: dose: 100.0 mg/kg/injection, schedule: Q01DX009 (ip), vehicle: acetone 98 % of control | dose: 100.0 mg/kg/injection, schedule: Q04DX003 (ip), vehicle: acetone 100 % of control | dose: 200.0 mg/kg/injection, schedule: Q01DX009 (ip), vehicle: acetone 98 % of control | dose: 200.0 mg/kg/injection, schedule: Q04DX003 (ip), vehicle: acetone 94 % of control | dose: 400.0 mg/kg/injection, schedule: Q01DX009 (ip), vehicle: acetone 96 % of control | dose: 400.0 mg/kg/injection, schedule: Q04DX003 (ip), vehicle: acetone 96 % of control

Cc1nc2c(NC(=O)CCl)nn(C)c2nc1C
inactive: [1] 98 % of control | [2] 95 % of control

c1ccc2c(c1)sc1[n+]2CCS1
inactive: dose: 75.0 mg/kg/injection, schedule: Q01DX001 (ip), vehicle: saline 113 % of control

Cn1c2nc(=O)n(-c3ccccc3)c(=O)c-2nc2c1CCCC2
inactive: dose: 3.12 mg/kg/injection, schedule: Q01DX009 (ip), vehicle: saline with Tween-80 100 % of control | dose: 6.25 mg/kg/injection, schedule: Q01DX009 (ip), vehicle: saline with Tween-80 100 % of control | dose: 12.5 mg/kg/injection, schedule: Q01DX009 (ip), vehicle: saline with Tween-80 98 % of control | dose: 25.0 mg/kg/injection, schedule: Q01DX009 (ip), vehicle: saline with Tween-80 101 % of control | dose: 50.0 mg/kg/injection, schedule: Q01DX009 (ip), vehicle: saline with Tween-80 100 % of control | [4] 106 % of control

CCOC(=O)c1cnc(SCc2ccccc2)nc1N
inactive: [4] 92 % of control | [1] 100 % of control | dose: 200.0 mg/kg/injection, schedule: Q01DX009 (ip), vehicle: saline with Tween-80 94 % of control | [2] 100 % of control | dose: 400.0 mg/kg/injection, schedule: Q01DX009 (ip), vehicle: saline with Tween-80 96 % of control | [3] 97 % of control
